MIC data for 23 compounds are collected here from patent US4226863A, “7-Methoxy cephalosporins” (Sumitomo Chemical Company, Limited, priority 1975, dated 1980).

≈ marks a conversion by molar mass, not a printed value.

Holding throughout (format): cell-based
One assay deals with Escherichia coli NIHJ. Kind of assay: antimicrobial activity, minimum inhibitory concentration, Escherichia coli NIHJ.
Another assay has as its system Serratia No. 115. As to the kind of experiment: antimicrobial activity, minimum inhibitory concentration, Serratia No. 115. The procedure: (§1) The antimicrobial activities of the compounds prepared in the previous Examples were determined in a usual manner and the minimum inhibitory concentrations (in terms of μg/ml) are set forth in the Table below.
The subject of the next assay is Proteus vulgaris HX 19. Kind of assay: antimicrobial activity, minimum inhibitory concentration, Proteus vulgaris HX 19. As to conditions: HX19. The procedure:
as §1

In assay [1] the test system is Enterobacter aerogenes No. 101. Kind of assay: antimicrobial activity, minimum inhibitory concentration, Enterobacter aerogenes No. 101. As to conditions: Klebsiella aerogenes. The procedure: as §1
The test system of assay [2] is Pseudomonas aeruginosa IID 5142. As to the kind of experiment: antimicrobial activity, minimum inhibitory concentration, Pseudomonas aeruginosa IID 5142. Particulars: IID5142. The procedure: as §1

Turning to `COC1(NC(=O)C(NC(=O)c2cnc3cccnc3c2O)c2cccc(O)c2)C(=O)N2C(C(=O)O)=C(CSc3nnc(C)s3)CSC21` (stereo not shown) [Example 31], the MIC against Escherichia coli NIHJ is 3.13 µg/mL (≈ 4.5 µM); in the assay with Serratia No. 115, 25 µg/mL (≈ 35.9 µM); with Proteus vulgaris HX 19, 0.39 µg/mL (≈ 0.561 µM); in assay [1] it was 6.25 µg/mL (≈ 8.98 µM); in assay [2], 3.13 µg/mL (≈ 4.5 µM).

Consider `COC1(NC(=O)C(NC(=O)c2cnc3cccnc3c2O)C2=CCC=CC2)C(=O)N2C(C(=O)O)=C(CSc3nnc(C)s3)CSC21` (stereo not shown) [Example 32], for which the MIC is 3.13 µg/mL (≈ 4.59 µM) against Escherichia coli NIHJ; 25 µg/mL (≈ 36.7 µM) with Serratia No. 115; 0.39 µg/mL (≈ 0.572 µM) with Proteus vulgaris HX 19; 6.25 µg/mL (≈ 9.17 µM) in assay [1]; 3.13 µg/mL (≈ 4.59 µM) in assay [2].

On to `COC1(NC(=O)C(NC(=O)c2cnccc2O)C2=CCC=CC2)C(=O)N2C(C(=O)O)=C(COC(N)=O)CSC21` (stereo not shown) [Example 33], for which the MIC in the assay on Escherichia coli NIHJ was 12.5 µg/mL (≈ 22.3 µM); against Serratia No. 115 it was 100 µg/mL (≈ 179 µM); in the assay with Proteus vulgaris HX 19 it was 0.39 µg/mL (≈ 0.697 µM); in assay [1], 50 µg/mL (≈ 89.4 µM); in assay [2], 12.5 µg/mL (≈ 22.3 µM).

For the compound `COC1(NC(=O)C(NC(=O)c2cnccc2O)c2cccs2)C(=O)N2C(C(=O)O)=C(CSc3nnnn3C)CSC21` (stereo not shown) [Example 34], the MIC with Escherichia coli NIHJ is 12.5 µg/mL (≈ 20.2 µM); against Serratia No. 115, 50 µg/mL (≈ 80.8 µM); against Proteus vulgaris HX 19, 0.39 µg/mL (≈ 0.63 µM); in assay [1] it was 12.5 µg/mL (≈ 20.2 µM); in assay [2], 6.25 µg/mL (≈ 10.1 µM).

Consider `COC1(NC(=O)C(NC(=O)c2cnc3cccnc3c2O)c2ccco2)C(=O)N2C(C(=O)O)=C(CSc3nnnn3C)CSC21` (stereo not shown) [Example 35], for which the MIC with Escherichia coli NIHJ is 1.56 µg/mL (≈ 2.39 µM); against Serratia No. 115, 6.25 µg/mL (≈ 9.56 µM); against Proteus vulgaris HX 19, 0.39 µg/mL (≈ 0.597 µM); in assay [1], 3.13 µg/mL (≈ 4.79 µM); in assay [2] it was 3.13 µg/mL (≈ 4.79 µM).

Consider `COC1(NC(=O)C(NC(=O)c2cnc3cccnc3c2O)C2=CCCCC2)C(=O)N2C(C(=O)O)=C(COC(C)=O)CSC21` (stereo not shown) [Example 36], for which the MIC in the assay on Escherichia coli NIHJ is 3.13 µg/mL (≈ 5.12 µM); against Serratia No. 115, 50 µg/mL (≈ 81.7 µM); in the assay on Proteus vulgaris HX 19 it was 0.39 µg/mL (≈ 0.638 µM); in assay [1] it was 12.5 µg/mL (≈ 20.4 µM); in assay [2] it was 3.13 µg/mL (≈ 5.12 µM).

As to `COC1(NC(=O)C(NC(=O)c2cnc3cncnc3c2O)c2ccc(O)cc2)C(=O)N2C(C(=O)[O-])=C(C[n+]3ccc(C(N)=O)cc3)CSC21` (stereo not shown) [Example 37], the MIC stood at 6.25 µg/mL (≈ 9.1 µM) against Escherichia coli NIHJ; 50 µg/mL (≈ 72.8 µM) in the assay on Serratia No. 115; 0.78 µg/mL (≈ 1.14 µM) in the assay on Proteus vulgaris HX 19; 6.25 µg/mL (≈ 9.1 µM) in assay [1]; 12.5 µg/mL (≈ 18.2 µM) in assay [2].

As for `COC1(NC(=O)C(NC(=O)c2cnc3ccncc3c2O)c2ccc(O)cc2)C(=O)N2C(C(=O)O)=C(CSc3nnnn3C)CSC21` (stereo not shown) [Example 38], the MIC stood at 12.5 µg/mL (≈ 18.4 µM) against Escherichia coli NIHJ; 25 µg/mL (≈ 36.8 µM) with Serratia No. 115; 0.78 µg/mL (≈ 1.15 µM) against Proteus vulgaris HX 19; 12.5 µg/mL (≈ 18.4 µM) in assay [1]; 12.5 µg/mL (≈ 18.4 µM) in assay [2].

With `COc1cc(C(NC(=O)c2cnc3cccnc3c2O)C(=O)NC2(OC)C(=O)N3C(C(=O)O)=C(COC(N)=O)CSC32)ccc1O` (stereo not shown) [Example 39], the MIC was 3.13 µg/mL (≈ 4.78 µM) against Escherichia coli NIHJ; 50 µg/mL (≈ 76.4 µM) in the assay on Serratia No. 115; 0.78 µg/mL (≈ 1.19 µM) with Proteus vulgaris HX 19; 12.5 µg/mL (≈ 19.1 µM) in assay [1]; 3.13 µg/mL (≈ 4.78 µM) in assay [2].

`COC1(NC(=O)C(NC(=O)c2cnc3cccnc3c2O)c2cc(Cl)c(O)c(Cl)c2)C(=O)N2C(C(=O)O)=C(CSc3nnc(C)s3)CSC21` (stereo not shown) [Example 40]: the MIC in the assay on Escherichia coli NIHJ came out at 6.25 µg/mL (≈ 8.17 µM); against Serratia No. 115, 12.5 µg/mL (≈ 16.3 µM); in the assay on Proteus vulgaris HX 19 it was 0.78 µg/mL (≈ 1.02 µM); in assay [1], 6.25 µg/mL (≈ 8.17 µM); in assay [2], 3.13 µg/mL (≈ 4.09 µM).

Regarding `COC1(NC(=O)C(NC(=O)c2cnccc2O)c2ccc(O)c(F)c2)C(=O)N2C(C(=O)O)=C(CSc3nnnn3C)CSC21` (stereo not shown) [Example 41], the MIC against Escherichia coli NIHJ worked out at 12.5 µg/mL (≈ 19.3 µM); in the assay on Serratia No. 115, 50 µg/mL (≈ 77.3 µM); against Proteus vulgaris HX 19, 0.39 µg/mL (≈ 0.603 µM); in assay [1], 12.5 µg/mL (≈ 19.3 µM); in assay [2], 6.25 µg/mL (≈ 9.67 µM).

As to `COC1(NC(=O)C(NC(=O)c2cnccc2O)c2cccc(O)c2)C(=O)N2C(C(=O)O)=C(CSc3nnc(CO)s3)CSC21` (stereo not shown) [Example 42], the MIC against Escherichia coli NIHJ is 12.5 µg/mL (≈ 18.9 µM); with Serratia No. 115, 50 µg/mL (≈ 75.7 µM); in the assay on Proteus vulgaris HX 19, 0.78 µg/mL (≈ 1.18 µM); in assay [1], 25 µg/mL (≈ 37.8 µM); in assay [2], 12.5 µg/mL (≈ 18.9 µM).

As for `COc1nc(OC)c2c(O)c(C(=O)NC(C(=O)NC3(OC)C(=O)N4C(C(=O)O)=C(CSc5nncs5)CSC43)c3ccc(O)cc3)cnc2n1` (stereo not shown) [Example 43], the MIC in the assay on Escherichia coli NIHJ came to 12.5 µg/mL (≈ 16.8 µM); with Serratia No. 115, 50 µg/mL (≈ 67.3 µM); against Proteus vulgaris HX 19 it was 1.56 µg/mL (≈ 2.1 µM); in assay [1], 25 µg/mL (≈ 33.7 µM); in assay [2] it was 12.5 µg/mL (≈ 16.8 µM).

In the case of `COC1(NC(=O)C(NC(=O)c2cnccc2O)c2ccc(O)c(O)c2)C(=O)N2C(C(=O)O)=C(COC(N)=O)CSC21` (stereo not shown) [Example 44], the MIC against Escherichia coli NIHJ is 12.5 µg/mL (≈ 21.2 µM); against Serratia No. 115, 100 µg/mL (≈ 170 µM); in the assay with Proteus vulgaris HX 19, 0.78 µg/mL (≈ 1.32 µM); in assay [1], 50 µg/mL (≈ 84.8 µM); in assay [2], 12.5 µg/mL (≈ 21.2 µM).

In the case of `COC1(NC(=O)C(NC(=O)c2cnc3cccnc3c2O)c2ccc(O)c(O)c2)C(=O)N2C(C(=O)O)=C(CSc3nnc(C)s3)CSC21` (stereo not shown) [Example 45], the MIC in the assay with Escherichia coli NIHJ came to 3.13 µg/mL (≈ 4.4 µM); against Serratia No. 115, 12.5 µg/mL (≈ 17.6 µM); against Proteus vulgaris HX 19, 0.78 µg/mL (≈ 1.1 µM); in assay [1] it was 12.5 µg/mL (≈ 17.6 µM); in assay [2], 6.25 µg/mL (≈ 8.78 µM).

As for `COC1(NC(=O)C(NC(=O)c2cnc3cn[nH]c3c2O)c2ccc(O)cc2)C(=O)N2C(C(=O)O)=C(CSc3nnnn3C)CSC21` (stereo not shown) [Example 46], the MIC in the assay with Escherichia coli NIHJ is 1.56 µg/mL (≈ 2.33 µM); in the assay on Serratia No. 115 it was 6.25 µg/mL (≈ 9.35 µM); against Proteus vulgaris HX 19, 0.39 µg/mL (≈ 0.583 µM); in assay [1], 6.25 µg/mL (≈ 9.35 µM); in assay [2], 6.25 µg/mL (≈ 9.35 µM).

For `COC1(NC(=O)C(NC(=O)c2cnc3cccnc3c2O)c2ccc(O)cc2)C(=O)N2C(C(=O)O)=C(CSc3ccc4nnnn4n3)CSC21` (stereo not shown) [Example 47], the MIC against Escherichia coli NIHJ is 3.13 µg/mL (≈ 4.37 µM); with Serratia No. 115, 12.5 µg/mL (≈ 17.4 µM); against Proteus vulgaris HX 19 it was 0.39 µg/mL (≈ 0.544 µM); in assay [1] it was 6.25 µg/mL (≈ 8.72 µM); in assay [2], 6.25 µg/mL (≈ 8.72 µM).

For the compound `COC1(NC(=O)C(NC(=O)c2cnc3cccnc3c2O)c2cccs2)C(=O)N2C(C(=O)O)=C(COC(N)=O)CSC21` (stereo not shown) [Example 48], the MIC was 3.13 µg/mL (≈ 5.09 µM) in the assay on Escherichia coli NIHJ; 25 µg/mL (≈ 40.7 µM) against Serratia No. 115; 0.39 µg/mL (≈ 0.635 µM) against Proteus vulgaris HX 19; 6.25 µg/mL (≈ 10.2 µM) in assay [1]; 3.13 µg/mL (≈ 5.09 µM) in assay [2].

Turning to `COC1(NC(=O)C(NC(=O)c2nnc(O)nc2O)c2ccccc2)C(=O)N2C(C(=O)O)=C(COC(C)=O)CSC21` (stereo not shown) [Example 49], the MIC in the assay with Escherichia coli NIHJ is 25 µg/mL (≈ 43.5 µM); against Serratia No. 115, 100 µg/mL (≈ 174 µM); with Proteus vulgaris HX 19, 1.56 µg/mL (≈ 2.72 µM); in assay [1], 50 µg/mL (≈ 87 µM); in assay [2] it was 25 µg/mL (≈ 43.5 µM).

`COC1(NC(=O)C(NC(=O)c2nnc(O)nc2O)c2ccc(O)cc2)C(=O)N2C(C(=O)O)=C(CSc3nnnn3C)CSC21` (stereo not shown) [Example 50]: the MIC against Escherichia coli NIHJ stood at 12.5 µg/mL (≈ 19.3 µM); in the assay with Serratia No. 115, 50 µg/mL (≈ 77.3 µM); in the assay with Proteus vulgaris HX 19, 1.56 µg/mL (≈ 2.41 µM); in assay [1] it was 25 µg/mL (≈ 38.7 µM); in assay [2], 12.5 µg/mL (≈ 19.3 µM).

Take `COC1(NC(=O)C(NC(=O)c2nnc(SC)nc2O)c2ccccc2)C(=O)N2C(C(=O)O)=C(COC(N)=O)CSC21` (stereo not shown) [Example 51]: the MIC in the assay on Escherichia coli NIHJ was found to be 25 µg/mL (≈ 41.3 µM); against Serratia No. 115 it was 100 µg/mL (≈ 165 µM); against Proteus vulgaris HX 19 it was 1.56 µg/mL (≈ 2.58 µM); in assay [1] it was 50 µg/mL (≈ 82.6 µM); in assay [2], 25 µg/mL (≈ 41.3 µM).

As to `COC1(NC(=O)C(NC(=O)c2nnc(O)nc2O)c2ccc(O)cc2)C(=O)N2C(C(=O)O)=C(COC(N)=O)CSC21` (stereo not shown) [Example 52], the MIC was determined as 25 µg/mL (≈ 42.3 µM) in the assay on Escherichia coli NIHJ; 100 µg/mL (≈ 169 µM) in the assay on Serratia No. 115; 1.56 µg/mL (≈ 2.64 µM) in the assay on Proteus vulgaris HX 19; 50 µg/mL (≈ 84.5 µM) in assay [1]; 25 µg/mL (≈ 42.3 µM) in assay [2].

In the case of `COC1(NC(=O)C(NC(=O)c2nnc(S)nc2O)c2ccccc2)C(=O)N2C(C(=O)O)=C(CSc3nnc(C)s3)CSC21` (stereo not shown) [Example 53], the MIC turned out to be 25 µg/mL (≈ 37.7 µM) against Escherichia coli NIHJ; 100 µg/mL (≈ 151 µM) in the assay on Serratia No. 115; 1.56 µg/mL (≈ 2.35 µM) against Proteus vulgaris HX 19; 50 µg/mL (≈ 75.4 µM) in assay [1]; 25 µg/mL (≈ 37.7 µM) in assay [2].
